Source: paper PMC6008465 (British Journal of Cancer, 2018)

System: patients with advanced BRAF-mutated or wild-type (WT) melanoma
Assay: Phase 1 Part B (expansion): safety, MTD confirmation
Assay type: in vivo, human
Procedure: In Part B, an adaptive study design was planned to define an optimal dosing schedule. Two schedules were evaluated: Schedule I (once-weekly dosing at the MTD, 320 mg/m^2, on Days 1, 8, and 15 of a 28-day cycle) and Schedule II (twice-weekly dosing, on Days 1, 4, 8, 11, 15, and 18 of a 28-day cycle, starting at 160 mg/m^2, based on the Schedule I MTD). One dose escalation (from 160 mg/m^2 to 320 mg/m^2) was allowed in Schedule II for MTD determination. […] Toxicity was managed as before. Up to 30 patients with BRAF-mutated melanoma and up to 29 patients with BRAF-WT melanoma were to be enrolled in Schedule I. Up to 30 patients were to be enrolled into Schedule II once the MTD was confirmed. Based on the efficacy observed in Part A, Schedule II was initiated only in patients with BRAF-mutated melanoma. Patients could continue to receive E6201 as long as there was evidence of clinical benefit (extension phase).
Safety was assessed by monitoring AEs, serious AEs (SAEs), laboratory parameters, vital signs, 12-lead electrocardiograms (ECGs), Eastern Cooperative Oncology Group performance status, and symptom-directed physical and neurologic examination findings. AEs were graded by investigators based on the National Cancer Institute Common Terminology Criteria for Adverse Events, version 3.[16]

[1] = Part B, BRAF-WT 320 mg/m^2 once weekly (n=7)
[2] = Part B, BRAF-mutated 160 mg/m^2 twice weekly (n=3)
[3] = Part B, BRAF-mutated 320 mg/m^2 once weekly (n=20)
[4] = Part B, BRAF-mutated 320 mg/m^2 once-weekly group

SMILES: CCNc1cc(O)c2c(c1)/C=C/C[C@H](O)[C@H](O)C(=O)/C=C\[C@@H](C)[C@H](C)OC2=O [E6201, (3S,4R,5Z,8S,9S,11E)-14-(ethylamino)-8,9,16-trihydroxy-3,4-dimethyl-3,4,9,19-tetrahydro-1H-2-benzoxacyclotetradecine-1,7 (8H)-dione]
- Patients who discontinued treatment due to SAEs (Part B): 4 patients
- Fatigue TEAE, patients (Part B overall, 11 patients): 36.7%
- Grade 3/4 abdominal pain, patients (Part B, 2 patients): 6.7%
- Grade 3/4 dyspnea, patients (Part B, 2 patients): 6.7%
- Treatment-emergent SAEs other than death, patients (Part B, 14 patients): 46.7%
- Grade 3/4 TEAEs, patients (Part B, 15 patients): 50.0%
- Patients with ≥1 TEAE assessed as treatment-related (Part B, 19 patients): 63.3%
- QT prolongation reported as an AE (grade 3, possibly related, not DLT), patients (Part B, 60-min infusion, 1 patient): 3.3%
- Anemia TEAE incidence, All grades [1]: 3 (42.9) n (%)
- Anemia TEAE incidence, G≥3 [1]: 1 (14.3) n (%)
- Constipation TEAE incidence, All grades [1]: 2 (28.6) n (%)
- Constipation TEAE incidence, G≥3 [1]: 0 n (%)
- Cough TEAE incidence, All grades [1]: 1 (14.3) n (%)
- Cough TEAE incidence, G≥3 [1]: 0 n (%)
- Decreased appetite TEAE incidence, All grades [1]: 2 (28.6) n (%)
- Decreased appetite TEAE incidence, G≥3 [1]: 0 n (%)
- Fatigue TEAE incidence, All grades [1]: 4 (57.1) n (%)
- Fatigue TEAE incidence, G≥3 [1]: 0 n (%)
- Muscular weakness TEAE incidence, All grades [1]: 2 (28.6) n (%)
- Muscular weakness TEAE incidence, G≥3 [1]: 0 n (%)
- Nausea TEAE incidence, All grades [1]: 2 (28.6) n (%)
- Nausea TEAE incidence, G≥3 [1]: 0 n (%)
- Pain in extremity TEAE incidence, All grades [1]: 2 (28.6) n (%)
- Pain in extremity TEAE incidence, G≥3 [1]: 1 (14.3) n (%)
- Peripheral edema TEAE incidence, All grades [1]: 2 (28.6) n (%)
- Peripheral edema TEAE incidence, G≥3 [1]: 1 (14.3) n (%)
- Pyrexia TEAE incidence, All grades [1]: 1 (14.3) n (%)
- Pyrexia TEAE incidence, G≥3 [1]: 0 n (%)
- Vomiting TEAE incidence, All grades [1]: 1 (14.3) n (%)
- Vomiting TEAE incidence, G≥3 [1]: 0 n (%)
- Deaths (multisystem organ failure, not considered related) (Part B, BRAF-mutated 160 mg/m^2 once-weekly group (so in the source)): One
- Anemia TEAE incidence, All grades [2]: 1 (33.3) n (%)
- Anemia TEAE incidence, G≥3 [2]: 0 n (%)
- Constipation TEAE incidence, All grades [2]: 0 n (%)
- Constipation TEAE incidence, G≥3 [2]: 0 n (%)
- Cough TEAE incidence, All grades [2]: 1 (33.3) n (%)
- Cough TEAE incidence, G≥3 [2]: 0 n (%)
- Decreased appetite TEAE incidence, All grades [2]: 0 n (%)
- Decreased appetite TEAE incidence, G≥3 [2]: 0 n (%)
- Fatigue TEAE incidence, All grades [2]: 0 n (%)
- Fatigue TEAE incidence, G≥3 [2]: 0 n (%)
- Muscular weakness TEAE incidence, All grades [2]: 1 (33.3) n (%)
- Muscular weakness TEAE incidence, G≥3 [2]: 0 n (%)
- Nausea TEAE incidence, All grades [2]: 1 (33.3) n (%)
- Nausea TEAE incidence, G≥3 [2]: 1 (33.3) n (%)
- Pain in extremity TEAE incidence, All grades [2]: 1 (33.3) n (%)
- Pain in extremity TEAE incidence, G≥3 [2]: 0 n (%)
- Peripheral edema TEAE incidence, All grades [2]: 1 (33.3) n (%)
- Peripheral edema TEAE incidence, G≥3 [2]: 0 n (%)
- Pyrexia TEAE incidence, All grades [2]: 0 n (%)
- Pyrexia TEAE incidence, G≥3 [2]: 0 n (%)
- Vomiting TEAE incidence, All grades [2]: 1 (33.3) n (%)
- Vomiting TEAE incidence, G≥3 [2]: 1 (33.3) n (%)
- Anemia TEAE incidence, All grades [3]: 1 (5.0) n (%)
- Anemia TEAE incidence, G≥3 [3]: 0 n (%)
- Constipation TEAE incidence, All grades [3]: 3 (15.0) n (%)
- Constipation TEAE incidence, G≥3 [3]: 0 n (%)
- Cough TEAE incidence, All grades [3]: 3 (15.0) n (%)
- Cough TEAE incidence, G≥3 [3]: 0 n (%)
- Decreased appetite TEAE incidence, All grades [3]: 3 (15.0) n (%)
- Decreased appetite TEAE incidence, G≥3 [3]: 0 n (%)
- Fatigue TEAE incidence, All grades [3]: 7 (35.0) n (%)
- Fatigue TEAE incidence, G≥3 [3]: 0 n (%)
- Muscular weakness TEAE incidence, All grades [3]: 2 (10.0) n (%)
- Muscular weakness TEAE incidence, G≥3 [3]: 0 n (%)
- Nausea TEAE incidence, All grades [3]: 7 (35.0) n (%)
- Nausea TEAE incidence, G≥3 [3]: 0 n (%)
- Pain in extremity TEAE incidence, All grades [3]: 2 (10.0) n (%)
- Pain in extremity TEAE incidence, G≥3 [3]: 0 n (%)
- Peripheral edema TEAE incidence, All grades [3]: 2 (10.0) n (%)
- Peripheral edema TEAE incidence, G≥3 [3]: 0 n (%)
- Pyrexia TEAE incidence, All grades [3]: 4 (20.0) n (%)
- Pyrexia TEAE incidence, G≥3 [3]: 0 n (%)
- Vomiting TEAE incidence, All grades [3]: 5 (25.0) n (%)
- Vomiting TEAE incidence, G≥3 [3]: 0 n (%)
- Patients with grade 1 photophobia (possibly related) (Part B, BRAF-mutated 320 mg/m^2 once-weekly): one
- Deaths (not considered related to E6201) [4]: 2 patients
- Patients with grade 4 pericardial effusion (unrelated) [4]: 1 patient
- Anemia TEAE incidence, All grades (Part B, Total (N=30)): 5 (16.7) n (%)
- Anemia TEAE incidence, G≥3 (Part B, Total (N=30)): 1 (3.3) n (%)
- Constipation TEAE incidence, All grades (Part B, Total (N=30)): 5 (16.7) n (%)
- Constipation TEAE incidence, G≥3 (Part B, Total (N=30)): 0 n (%)
- Cough TEAE incidence, All grades (Part B, Total (N=30)): 5 (16.7) n (%)
- Cough TEAE incidence, G≥3 (Part B, Total (N=30)): 0 n (%)
- Decreased appetite TEAE incidence, All grades (Part B, Total (N=30)): 5 (16.7) n (%)
- Decreased appetite TEAE incidence, G≥3 (Part B, Total (N=30)): 0 n (%)
- Fatigue TEAE incidence, All grades (Part B, Total (N=30)): 11 (36.7) n (%)
- Fatigue TEAE incidence, G≥3 (Part B, Total (N=30)): 0 n (%)
- Muscular weakness TEAE incidence, All grades (Part B, Total (N=30)): 5 (16.7) n (%)
- Muscular weakness TEAE incidence, G≥3 (Part B, Total (N=30)): 0 n (%)
- Nausea TEAE incidence, All grades (Part B, Total (N=30)): 10 (33.3) n (%)
- Nausea TEAE incidence, G≥3 (Part B, Total (N=30)): 1 (3.3) n (%)
- Pain in extremity TEAE incidence, All grades (Part B, Total (N=30)): 5 (16.7) n (%)
- Pain in extremity TEAE incidence, G≥3 (Part B, Total (N=30)): 1 (3.3) n (%)
- Peripheral edema TEAE incidence, All grades (Part B, Total (N=30)): 5 (16.7) n (%)
- Peripheral edema TEAE incidence, G≥3 (Part B, Total (N=30)): 1 (3.3) n (%)
- Pyrexia TEAE incidence, All grades (Part B, Total (N=30)): 5 (16.7) n (%)
- Pyrexia TEAE incidence, G≥3 (Part B, Total (N=30)): 0 n (%)
- Vomiting TEAE incidence, All grades (Part B, Total (N=30)): 7 (23.3) n (%)
- Vomiting TEAE incidence, G≥3 (Part B, Total (N=30)): 1 (3.3) n (%)
- QTcF prolongation to 450–500 ms, patients (Part B, four patients across dose groups): 13.3%
- QTcF increase from baseline 30–60 ms, patients (Part B, seven patients): 23.3%
- QTcF increase from baseline ≥60 ms, patients (Part B, two patients, BRAF-mutated 320 mg/m^2 once-weekly group): 6.7%
- Maximum-tolerated dose (MTD), confirmed (Part B, 60-min infusion once-weekly for 3 weeks of a 28-day cycle): 320 mg/m^2
